Results as given in PMC8050080, “Cannabis sativa terpenes are cannabimimetic and selectively enhance cannabinoid activity” (Scientific Reports, 2021).

Key:
[1] = test system: WT CHO cells; assay: ERK phosphorylation (Western) in WT CHO cells; assay type: cell-based; conditions: for ERK phosphorylation in WT CHO cells: 500 μM terpene or 10 μM WIN55,212-2, 5 min, Fig. 7B
Description: WT-CHO cells were obtained from ATCC (#CCL-61). CHO cells stably expressing the human CB1 receptor were obtained from PerkinElmer (#ES-110-C) and utilized for western blots (CB1-CHO-C2) or binding assays (CB1-CHO-C3). HitHunter (CB1-CHO-cAMP) and PathHunter (CB-CHO-βarr2) assays were performed on respective CB1-CHO lines, and were a kind gift from Dr. Robert Laprairie[44]. CHO cells stably expressing cloned CB2 (CB2-CHO) were produced by electroporation with the human CB2 N-3xHA tag cDNA (GeneCopoeia). A stable expressing population was selected for with 500 μg/mL G418. CHO cells stably expressing the human mu opioid receptor were obtained from PerkinElmer (#ES-542-C). All cells were grown on 10 cm dishes in DMEM/F-12 50/50 mix w/ L-glutamine and 15 mM HEPES (Corning) containing 10% heat-inactivated fetal bovine serum, 100 units/mL penicillin, 100 units/mL streptomycin, and 400 μg/mL G418 (CB1-CHO-C2, CB1-CHO-C3, CB2-CHO, MOR-CHO); 800 μg/mL G418 (CB1-CHO-cAMP); 800 μg/mL G418 and 300 μg/mL hygromycin B (CB1-CHO-βarr2). WT CHO were grown as stated above without selection antibiotic. Cells were incubated in a humidified incubator at 37 °C with 5% CO2 and were sub-cultured every 2–3 days.
Cells were plated in 6-well plates 24 h prior to the start of the experiments. Cells were serum starved for 1 h then treated for 5 min with compound. In antagonist experiments, cells were pretreated for 5 min before agonist treatment for 5 min. Media was then aspirated, cells were placed on ice, washed with ice-cold PBS once, and lysis buffer (20 mM Tris–HCl, pH 7.4, 150 mM NaCl, 2 mM EDTA, 0.1% SDS, 1% Nonidet P-40, 0.25% deoxycholate, 1 mM sodium orthovanadate, 1 mM PMSF, 1 mM sodium fluoride, and a protease inhibitor cocktail (EMD Millipore)), was added. Cells were scraped and collected. Lysates were vortexed then centrifuged at 13 k rpm at 4 °C for 10 min. Lysates were then processed for Western blots or stored at − 80 °C.
Cell lysate protein was quantified with a modified BCA protein assay using manufacturers protocol (Bio-Rad). Samples (20–30 μg) were ran on precast gels (10% Bis–Tris, Bolt brand, from ThermoFisher). Gels were wet-transferred to nitrocellulose membranes at 30 V for at least 60 min at 4 °C. Blots were blocked with 5% non-fat dry milk in TBS for 30 min, washed 3 × for 5 min with TBS + 0.1% Tween-20 (TBST), and incubated with primary antibody overnight at 4 °C. Primary antibody: pERK and tERK (Cell Signaling) at 1:1000 dilution in 5% BSA in TBST. Blots were then washed 3 × with TBST then incubated with secondary antibodies for 90 min at room temperature. Secondary antibodies: Goat anti-Rabbit 800 W and Goat anti-Mouse 680 diluted at 1:10,000 and 1:20,000 (Licor), respectively, in 5% non-fat milk in TBST. Blots were washed 3X with TBST and 1 × with TBS, then imaged on a Licor Odyssey Fc or Azure Sapphire. Bands were analyzed using Image-J and reported as pERK/tERK normalized to the standard, or simply as pERK/tERK.

[2] = test system: male and female CD-1 mice; assay: Catalepsy ring test; assay type: in vivo; conditions: for catalepsy vs baseline: 15 min after i.p. 200 mg/kg terpene or 5.6 mg/kg WIN55,212-2, Fig. S2B
Description: Potential induction of catalepsy was assessed using the ring test as described. Mice were baselined, injected with compound, and then assessed with the ring test at 15 min post-injection. Data was represented as the percentage (%) of time in a “cataleptic” immobile state over the 5 min observation period.

[3] = biological target: T1, CB1 (Homo sapiens, UniProt P21554); assay: biochemical; assay type: binding; conditions: CB1-CHO membranes; for competition for the orthosteric binding site against CP55,940: Fig. 8A
[4] = biological target: T1, CB1; assay type: cell-based; design: expressed in transfected cells; host or cells: CHO (CB1-CHO-βarr2 / CB1-CHO-DX), gift from Dr. Robert Laprairie; conditions: Fig. S14C
[5] = test system: male and female CD-1 mice; assay: Open field test (hypolocomotion); conditions: for distance traveled and mobile time, experiment without baseline recording: vs Vehicle, Fig. S3A,B
Description: All experiments were performed on male and female CD-1 (a.k.a. ICR) mice obtained from Charles River in age-matched cohorts of 5–6 weeks of age. […] The animals were maintained in an AAALAC-accredited vivarium at the University of Arizona in temperature and humidity-controlled rooms on a 12-h light/dark cycle. Standard chow and water were available ad libitum. […] Mice were randomized to treatment group by randomization of mice to cages upon arrival, and block random assignment of cages to treatment group. The experimenter was blinded to treatment group by the delivery of coded drug vials. The groups were not decoded until all data had been acquired.
The open field test was used to determine potential hypolocomotive properties induced by terpene and cannabinoid treatment. The open field box was a white box with an open top and black floor. The tracking area was 30 cm × 28 cm. Mice were baselined by placing the mouse in the center of the box and recording from a video camera ~ 1.5 m above for a period of 5 min. Mice were then injected with compound and placed back in the open field box 10–15 min post-injection. In follow-up experiments, mice were not baselined, injected with compound, and placed in the open field box from 10 to 15 min. The total distance traveled and mobile time of mice were analyzed using AnyMaze software.

[6] = test system: male and female CD-1 mice; assay: Hypothermia (core temperature, rectal thermometer); assay type: in vivo; conditions: 30 min after i.p. 200 mg/kg terpene or 5.6 mg/kg WIN55,212-2, Fig. S2A
Description: Changes in core temperature were assessed using a lubricated rectal thermometer placed 1.0 cm into the mouse rectum. Temperature was assessed before treatment and 30 min post-treatment.

[7] = test system: male and female CD-1 mice; assay: Tail flick thermal latency test (antinociception); assay type: in vivo; conditions: Fig. S1
Description: Antinociception was tested using the tail flick thermal latency test. Mice were baselined by gently restraining the animal and lowering the distal portion of the tail into a water bath set to 52 °C or 47 °C where stated, and the latency to flick the tail recorded with a stopwatch, with a 10 s cutoff. Mice were then injected with compounds intraperitoneally (i.p.). Thermal latency was then assessed over a time course of 2 h, or at a single time-point as noted. […] For assays using terpene/WIN55,212-2 co-treatment, WIN55,212-2 was co-administered with terpene in the same solution.

[8] = biological target: T2, human mu opioid receptor (Homo sapiens, UniProt P35372); assay type: cell-based; conditions: 500 μM terpene or 10 μM morphine, 5 min, Fig. S13A
T2 construct: host or cells: CHO (MOR-CHO)
Description: Cells were plated in 6-well plates 24 h prior to the start of the experiments. Cells were serum starved for 1 h then treated for 5 min with compound. In antagonist experiments, cells were pretreated for 5 min before agonist treatment for 5 min. […] Cells were scraped and collected. Lysates were vortexed then centrifuged at 13 k rpm at 4 °C for 10 min. Lysates were then processed for Western blots or stored at − 80 °C.
CHO cells were serum starved for 1 hr, then treated with Vehicle, 10 μM morphine, or 500
μM terpene for 5 min. ERK was quantitated and reported as above. Data expressed as the
vs. Vehicle group by 1 Way ANOVA with Dunnett’s post hoc test. B) MOR-CHO cells
serum starved for 1 hr, then pre-treated with Vehicle or 10 μM naloxone for 10 min, then
treated with Vehicle, 10 μM morphine, or 500 μM terpene for 5 min. ERK quantitated,
reported, and normalized as in A (n=3 independent experiments). *, **** = p < 0.05,
0.0001 vs. terpene-alone group for each set by 1 Way ANOVA with Sidak’s post hoc test
(set up as pairwise comparisons between terpene and terpene + naloxone for each set). For
both, representative blots are shown below each graph.

[9] = biological target: T1, CB1; assay type: cell-based; conditions: varying concentrations, 5 min, Fig. 6
Description: WT-CHO cells were obtained from ATCC (#CCL-61). […] CHO cells stably expressing cloned CB2 (CB2-CHO) were produced by electroporation with the human CB2 N-3xHA tag cDNA (GeneCopoeia). A stable expressing population was selected for with 500 μg/mL G418. […] All cells were grown on 10 cm dishes in DMEM/F-12 50/50 mix w/ L-glutamine and 15 mM HEPES (Corning) containing 10% heat-inactivated fetal bovine serum, 100 units/mL penicillin, 100 units/mL streptomycin, and 400 μg/mL G418 (CB1-CHO-C2, CB1-CHO-C3, CB2-CHO, MOR-CHO); 800 μg/mL G418 (CB1-CHO-cAMP); 800 μg/mL G418 and 300 μg/mL hygromycin B (CB1-CHO-βarr2). WT CHO were grown as stated above without selection antibiotic. Cells were incubated in a humidified incubator at 37 °C with 5% CO2 and were sub-cultured every 2–3 days.
Cells were plated in 6-well plates 24 h prior to the start of the experiments. Cells were serum starved for 1 h then treated for 5 min with compound. In antagonist experiments, cells were pretreated for 5 min before agonist treatment for 5 min. […] Cells were scraped and collected. Lysates were vortexed then centrifuged at 13 k rpm at 4 °C for 10 min. […]
Cell lysate protein was quantified with a modified BCA protein assay using manufacturers protocol (Bio-Rad). […] Bands were analyzed using Image-J and reported as pERK/tERK normalized to the standard, or simply as pERK/tERK.

[10] = test system: male and female CD-1 mice; assay: Cannabinoid tetrad of behaviors (antinociception, hypolocomotion, catalepsy, hypothermia); assay type: in vivo; conditions: 200 mg/kg terpene i.p. (β-Caryophyllene control)
Excerpt: Our first set of experiments sought to determine whether selected terpenes/terpenoids (α-Humulene, β-Pinene, Linalool [terpenoid], Geraniol [terpenoid], and β-Caryophyllene as a putative cannabinoid receptor type 2 [CB2] agonist control) had activity in the cannabinoid tetrad of behaviors mediated by the CB1 receptor: antinociception, hypolocomotion, catalepsy, and hypothermia. These terpenes were selected based on their quantities in Cannabis sativa, with α-Humulene, β-Pinene, Linalool, and β-Caryophyllene all being found in higher quantities and Geraniol in lower to underdetermined quantities. Although it is not clear if geraniol is present in higher quantities, we nonetheless chose this ligand due to its reported anti-nociceptive activity (e.g.[22]). Terpenes were administered at several doses (50–200 mg/kg) i.p. and assessed in the tail flick assay in male and female CD-1 mice. […]
Antinociception was tested using the tail flick thermal latency test. Mice were baselined by gently restraining the animal and lowering the distal portion of the tail into a water bath set to 52 °C or 47 °C where stated, and the latency to flick the tail recorded with a stopwatch, with a 10 s cutoff. […] Thermal latency was then assessed over a time course of 2 h, or at a single time-point as noted. […]
Potential induction of catalepsy was assessed using the ring test as described. […]

[11] = 200 mg/kg terpene or 5.6 mg/kg WIN55,212-2 i.p.

T1 sequence (P21554 whole entry): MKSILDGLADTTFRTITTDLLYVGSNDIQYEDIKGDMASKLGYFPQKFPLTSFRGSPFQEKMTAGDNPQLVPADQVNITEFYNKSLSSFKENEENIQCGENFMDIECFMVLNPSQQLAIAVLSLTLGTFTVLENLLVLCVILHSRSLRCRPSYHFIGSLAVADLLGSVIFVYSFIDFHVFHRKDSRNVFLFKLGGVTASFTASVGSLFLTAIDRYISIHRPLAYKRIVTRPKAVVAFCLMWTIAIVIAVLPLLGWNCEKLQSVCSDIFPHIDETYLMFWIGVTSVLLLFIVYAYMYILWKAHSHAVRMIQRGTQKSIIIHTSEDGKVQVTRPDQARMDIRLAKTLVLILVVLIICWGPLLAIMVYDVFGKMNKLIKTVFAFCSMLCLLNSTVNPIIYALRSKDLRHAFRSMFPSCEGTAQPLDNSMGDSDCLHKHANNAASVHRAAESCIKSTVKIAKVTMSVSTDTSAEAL
T2 sequence (P35372 whole entry): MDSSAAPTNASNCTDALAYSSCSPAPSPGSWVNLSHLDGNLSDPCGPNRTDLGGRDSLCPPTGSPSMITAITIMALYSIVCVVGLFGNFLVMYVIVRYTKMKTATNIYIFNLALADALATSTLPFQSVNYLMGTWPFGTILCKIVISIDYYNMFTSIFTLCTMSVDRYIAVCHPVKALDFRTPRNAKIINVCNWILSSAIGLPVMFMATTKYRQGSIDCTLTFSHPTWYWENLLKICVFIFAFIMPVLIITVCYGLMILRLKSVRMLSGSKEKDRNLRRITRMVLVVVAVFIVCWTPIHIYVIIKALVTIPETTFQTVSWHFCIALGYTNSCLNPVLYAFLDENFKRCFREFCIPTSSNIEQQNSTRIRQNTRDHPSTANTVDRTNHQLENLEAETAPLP

| SMILES | ERK phosphorylation in WT CHO cells [1] | effect of istradefyllene pretreatment on catalepsy response ([2]; 10 mg/kg istradefyllene, 200 mg/kg terpene, Fig. 4) | effect of rimonabant pretreatment on catalepsy response ([2]; 10 mg/kg rimonabant, 200 mg/kg terpene, Fig. 4) | catalepsy vs baseline [2] | competition for the orthosteric binding site against CP55,940 [3] | IC50 ([3]; mean (95% CI), n = 5, Fig. 8A, read-out: IC50, competition binding against 3H-CP55,940) [µM] | effect of a full dose-range of Geraniol on WIN55,212-2 βarrestin2 recruitment [4] | effect of istradefyllene pretreatment on mobile time ([5]; 10 mg/kg istradefyllene, 200 mg/kg terpene, Fig. 5) | effect of istradefyllene pretreatment on distance traveled ([5]; 10 mg/kg istradefyllene, 200 mg/kg terpene, Fig. S7) | locomotor activity vs baseline ([5]; 200 mg/kg terpene or 5.6 mg/kg WIN55,212-2 i.p., compared to baseline values, Fig. S2C,D, confounded by habituation) | distance traveled and mobile time, experiment without baseline recording [5, 11] | hypothermia vs baseline [6] | efficacy in the tail flick assay ([7]; terpene 50–200 mg/kg i.p., dose-dependent) | ERK stimulation in MOR-CHO cells [8] | rimonabant sensitivity of ERK activation in WT CHO cells ([1]; 500 μM terpene after 10 μM rimonabant, Fig. 7C) | tail flick antinociception (efficacy in words) ([7]; terpenes 50–200 mg/kg i.p. (β-Caryophyllene 100 mg/kg), WIN55,212-2 up to 10 mg/kg, over 2 h) | ERK activation in CB1-CHO cells [9] | number of classic cannabinoid tetrad behaviors induced (out of 4) [10] |
| --- | --- | --- | --- | --- | --- | --- | --- | --- | --- | --- | --- | --- | --- | --- | --- | --- | --- | --- |
| CC(C)=CCC/C(C)=C/CO [Geraniol] | did not cause ERK phosphorylation | partially blocked | no impact | significant increases in cataleptic behavior | full competition | 44.2 | dose-dependent reductions in WIN55,212-2 recruitment | significant reversal | istradefyllene reversal | significant reductions in locomotor activity | reductions in distance traveled and mobile time | induced significant hypothermia | 40–50% | no response |  |  |  |  |
| C=C1CC/C=C(\C)CC[C@@H]2[C@@H]1CC2(C)C [β-Caryophyllene, reference compound] | activated ERK |  |  | did not induce | some competition and semi-biphasic properties |  |  |  |  |  | did not result in significant reductions | did not induce |  | produced ERK stimulation | rimonabant-insensitive | low efficacy | activated downstream ERK signaling | did not |
